Where two headings read alike, the source gives them in different places.

In general, IC50 refers to the midpoint of a concentration-inhibition curve. What is called half-life is the time needed for the level to fall by half in the phase considered. Usually melting point stands for the temperature of the solid-liquid transition.

The test system of data set [1] is human breast cancer cell line (MCF-7). Nature of the data set: MTT cytotoxicity assay, MCF-7. It counts as cell-based. Here is the method:
(§1) The cytotoxicity of these compounds against three cancer cell lines was assayed using a conventional microtitre plate tetrazolium cytotoxicity assay. The human hepatoma cancer cell line (SMMC-7721), the colon cancer cell line (HCT-116), and the human breast cancer cell line (MCF-7) were provided by The Chinese Academy of Sciences cell bank. These cells were plated at a density of 1 × 10^5 cells/mL and incubated in a 96-well late for 24 h (37 °C, 5% CO2). The cells were then exposed to various concentrations of the compounds (0.0032, 0.016, 0.08, 0.4, 2, 10, and 50 µM/mL) continuously for 72 h. After this incubation, MTT solution (20 μL, 5 mg/mL) was added to each well and incubated for a further 4 h before removing the media. Formazan crystals were then dissolved by the addition of DMSO (100 μL per well). After mixing, the absorbance was read at 540 nm on a microplate reader. These assays were performed in three independent experiments. Wells containing no drugs, or CPT, were used as negative and positive controls, respectively. The IC50 values, defined as the concentration of compounds that produced a 50% decrease in surviving cells, were calculated using the Logit-method.

Data set [2] has as its system human colon cancer cell line (HCT-116). As to the kind of experiment: MTT cytotoxicity assay, HCT-116. It counts as cell-based. As to the method: as §1
In general terms: Tetrazolium dyes change colour on reduction, which living cells bring about.

The test system of data set [3] is human hepatoma cell line (SMMC-7721). As to the kind of experiment: MTT cytotoxicity assay, SMMC-7721. In kind it is cell-based. As to the method:
as §1

Data set [4] is described as follows: Lactone stability in rat blood serum (HPLC). It counts as in vitro ADME. Here is the method: Compounds E2, F2, G2, and H2 were dissolved in DMSO (100 μL, 4 mM/L) and incubated in rat blood serum (4 mL) at 37 °C. Aliquots were taken at different time points (0, 2, 4, 6, 8, 10, 12, and 24 h) and examined by HPLC, using CPT as the reference.
In a further data set the test system is H22 mouse liver tumours. Nature of the data set: In vivo anti-tumour activity, H22 mouse liver tumour model. The conditions noted are these: H22 KM mice, i.p. every two days. Here is the method: Anti-tumour activity screens of CPT-bile acid analogues were conducted in KM mice with H22 mouse liver tumours. Briefly, female mice weighing 18–22 g were subcutaneously inoculated at the right flank with a tumour cell suspension (1 × 10^6 cells) in 0.2 mL of phosphate-buffered saline. The mice were divided into subgroups 24 h after inoculation. These groups (n = 4) were treated with either vehicle (control), CPT, or the CPT-bile acid analogues. Mice received i.p. treatments once every two days. When the tumour weight of the control group reached 1.0–1.5 g, the mice were killed and the TIR (%) calculated.

The nature of data set [5]: Body weight and surviving mice in the H22 in vivo study. Also noted: species or system mouse. The conditions noted are these: for Mice Number End of Study: 4 mice at start. Here is the method:
Anti-tumour activity screens of CPT-bile acid analogues were conducted in KM mice with H22 mouse liver tumours. […] These groups (n = 4) were treated with either vehicle (control), CPT, or the CPT-bile acid analogues. Mice received i.p. treatments once every two days.

The test system of a further data set is SMMC-7721 cells. Nature of the data set: Fluorescence microscopy of compound entry into SMMC-7721 cells. The conditions noted are these: 10 or 20 µM, up to 4 h at 37 °C, ultraviolet light. In kind it is cell-based, human. As to the method: (§2) Compound E2 (final concentrations of 10 µM/mL and […]) and CPT (final concentrations of 10 µM/mL and 20 µM/mL) were directly added to the cell culture medium and incubated for 1 h, 2 h or 4 h at 37 °C. The cells were then gently washed three times with physiological saline. Cellular fluorescence was imaged using a fluorescence microscope (Zeiss inverted Microscope Axiovert 200 equipped with a NIKON DS-FiL (Sendai, Japan). The images were taken using ultraviolet light.

In the next data set the test system is MCF-7 cells. As to the kind of experiment: Fluorescence microscopy of compound entry into MCF-7 cells. It counts as cell-based, human. The following applies: data not shown. As to the method:
as §2

For data set [6] the following is noted: in this project. Here is the method: Preliminary anti-tumour activity studies of E2, G4, and H2 were evaluated in vivo in a mouse liver adenocarcinoma model (H22) and compared with CPT.
[7] abbreviates: MCF7, 72 h, read-out: In Vitro Cytotoxicity (IC50, µM) MCF-7.
Setting [8] is: HCT-116, 72 h, read-out: In Vitro Cytotoxicity (IC50, µM) HCT-116.
[9] abbreviates: SMMC-7721, 72 h, read-out: In Vitro Cytotoxicity (IC50, µM) SMMC7721.

Regarding `CC[C@@]1(O)C(=O)OCc2c1cc1n(c2=O)Cc2cc3ccccc3nc2-1` [CPT, Camptothecin], the IC50 in data set [1] (MCF7, MTT, 72 h exposure, MCF-7, read-out: In Vitro Cytotoxicity (IC50, µM) MCF-7) came out at 0.57 µM; in [2] (MTT, 72 h exposure, HCT-116, read-out: In Vitro Cytotoxicity (IC50, µM) HCT-116), 0.52 µM; in data set [3] (MTT, 72 h exposure, SMMC-7721, read-out: In Vitro Cytotoxicity (IC50, µM) SMMC7721), 0.56 µM. For the same compound, in data set [4] (rat blood serum, 37 °C, HPLC, up to 24 h, read-out: Half-Life (converted)), the half-life at 97.6 µM was 138 min. The “TIR (%)” value with H22 mouse liver tumours (dose 27.45 × 3 µmol/kg) was 67.26%. Further, the “Mice Number End of Study” value in data set [5] (dose 27.45 × 3 µmol/kg i.p.) was determined as 3. In addition, the “Body Weight (g) End of Study” value in data set [5] (dose 27.45 × 3 µmol/kg i.p., start of study 21.4 g) was 18.6 g. The “Cellular fluorescence (accumulation in cells)” value (shortened to “Cellular fluorescence”) in the data set on SMMC-7721 cells was “no distinct fluorescence”; in the data set on MCF-7 cells, “no fluorescent signal”. The “maximum dose which the mouse can tolerate” value in data set [6] amounted to 27.45 µmol/kg.

The compound `CC[C@@]1(OC(=O)CNC(=O)CCC(C)C2CCC3C4CCC5C[C@H](O)CC[C@]5(C)C4C[C@H](O)[C@]23C)C(=O)OCc2c1cc1n(c2=O)Cc2cc3ccccc3nc2-1` (stereo partly drawn) [Compound E2, Camptothecin-20 (S)-O-glycine Ester-[N-(3′α,12′α-dihydroxy-24′-carbonyl-5′β-cholane)]] came in with a melting point of 203 to 204 °C. Moreover, in data set [1] (setting [7]), the IC50 is 150 µM. Also, in data set [2] (setting [8]), the IC50 amounted to 15.8 µM. In addition, the IC50 in data set [3] (setting [9]) came out at 0.36 µM. In addition, the half-life at 97.6 µM in data set [4] (rat, serum) was more than 1440 min. The “TIR (%)” value with H22 mouse liver tumours (dose 19.23 × 3 µmol/kg) is 4.09%. In addition, in the data set on H22 mouse liver tumours (dose 38.45 × 3 µmol/kg), the “TIR (%)” value was 16.10%. Moreover, the “TIR (%)” value in the data set on H22 mouse liver tumours (dose 57.69 × 3 µmol/kg) came out at 40.13%. The “Mice Number End of Study” value in [5] (dose 19.23 × 3 µmol/kg i.p.) is recorded as 4. Besides, the “Body Weight (g) End of Study” value in [5] (dose 19.23 × 3 µmol/kg i.p., start of study 19.9 g) is listed as 21.9 g. The “Mice Number End of Study” value in data set [5] (dose 38.45 × 3 µmol/kg i.p.) is on record as 4. The “Body Weight (g) End of Study” value in data set [5] (dose 38.45 × 3 µmol/kg i.p., start of study 20.5 g) amounted to 21.5 g. For the same compound, in [5] (dose 57.69 × 3 µmol/kg i.p.), the “Mice Number End of Study” value was determined as 4. Further, in data set [5] (dose 57.69 × 3 µmol/kg i.p., start of study 20.5 g), the “Body Weight (g) End of Study” value came out at 20.6 g. For the same compound, in the data set on SMMC-7721 cells, the “Cellular fluorescence” value is “accumulated in the SMMC-7721 cells”. Moreover, in the data set with MCF-7 cells, the “Cellular fluorescence” value is given as “no fluorescent signal”.

As for `CC[C@@]1(O)C(=O)OCc2c1cc1n(c2=O)Cc2cc3cc(OCCCOC(=O)CCC(C)C4CCC5C6CCC7C[C@H](O)CCC7C6C[C@H](O)C45)ccc3nc2-1` (stereo partly drawn) [Compound H2, 10-O-(3-O-(3′α,12′α-Dihydroxy-24′-carbonyl-5′β-cholan)-propyl)-20(S)-camptothecin], the IC50 in [1] (setting [7]) worked out at 2.5 µM; in data set [2] (setting [8]) it was 0.8 µM; in data set [3] (setting [9]), 2.74 µM. This compound also came in with a half-life at 97.6 µM in data set [4] (rat, serum) of more than 1440 min. For the same compound, the “TIR (%)” value is 13.27% in the data set on H22 mouse liver tumours (dose 18.82 × 3 µmol/kg), 57.99% with H22 mouse liver tumours (dose 37.64 × 3 µmol/kg) and 61.19% in the data set with H22 mouse liver tumours (dose 56.46 × 3 µmol/kg). In addition, the “Mice Number End of Study” value in [5] (dose 18.82 × 3 µmol/kg i.p.) is listed as 3; in data set [5] (dose 37.64 × 3 µmol/kg i.p.), 4; in data set [5] (dose 56.46 × 3 µmol/kg i.p.), 3. In addition, the “Body Weight (g) End of Study” value amounted to 21.1 g in data set [5] (dose 18.82 × 3 µmol/kg i.p., start of study 22.1 g); 18.2 g in [5] (dose 37.64 × 3 µmol/kg i.p., start of study 21.9 g); 20.0 g in data set [5] (dose 56.46 × 3 µmol/kg i.p., start of study 21.6 g).
